Experimental data from patent US10221178B2, “Purine inhibitors of human phosphatidylinositol 3-kinase delta” (MERCK SHARP & DOHME CORP., priority 2015, dated 2019).

Legend:
PI3Kdelta = PI3Kdelta (Homo sapiens (Human), UniProt O00329); assay: HTRF PI3K biochemical assay, delta isoform; conditions: 0.3 nM enzyme, 100 uM ATP, 5 uM PIP2, form screened: Neutral
Text: (§1) HTRF PI3K Biochemical Assay to Measure Intrinsic Potency of Compound Inhibitors
(§2) The PI3-Kinase biochemical assays were developed to measure the intrinsic potency and compound dependent inhibition of the alpha, beta, delta, and gamma PI3K isoform enzymes.
(§3) This assay was developed and further optimized from a kit produced by Upstate (Millipore catalog #33-047) and has been configured for HTS (high throughput screening) and SAR screening. Briefly, this procedure exploits the exquisite specificity and high affinity binding of enzyme reaction substrate phosphatidyl(3,4,5)triphosphate (PIP3) to the GRP1 pleckstrin homology (PH) domain to generate the signal. In the absence of PIP3, an HTRF (Homogeneous Time-Resolved Fluorescence energy transfer) complex is formed consisting of europium (Eu)-labeled anti-GST, GSTtagged GRP1-PH domain, biotin-PIP3 and streptavidin conjugated APC. The native PIP3 produced by PI3-Kinase activity disrupts in a competitive manner the biotin-PIP3 from the PH domain, resulting in the loss of energy transfer (HTRF complex) and a decrease in the signal. The format of this assay is the same for all 4 isoforms of PI3K; the differences lie in the concentration of enzyme used to achieve robust assay window. The alpha, beta, and delta assays are run at 0.5, 1, and 0.3 nM enzymes and the gamma assay is run at 5 nM enzyme. The ATP concentration is 100 uM in the alpha, beta, and delta assays and 50 uM ATP in the gamma assay. All reactions are run at 5 uM PIP2.
(§4) Compounds are serially diluted (3-fold in 100% DMSO) across a 384-well polypropylene source plated from column 3 to column 12 and column 13 to column 22, to yield 10 concentration dose response for each test compound. Columns 1, 2, 23 and 24 contain either only DMSO or pharmacological known control inhibitor. Once titrations are made, 2.5 nL of the compounds on 384 well plates are reformatted and transferred by acoustic dispense in quadruplicates to a 1536 assay plate (Greiner) to assay across all four PI3K isoform enzymes.
(§5) The PI3-Kinase biochemical assay was optimized using the HTRF kit provided by Upstate (Millipore). The assay kit contains six reagents: 1) 4× Reaction Buffer; 2) native PIP2 (substrate); 3) Stop (EDTA); 4) Detection Mix A (Streptavidin-APC); 5) Detection Mix B (Eu-labeled Anti-GST plus GST-tagged PH-domain); 6) Detection Mix C. In addition, the following items were obtained or purchased; PI3Kinase (alpha 14-602, beta 14-603, gamma 14-558 and delta 14-604 from Upstate; Millipore), dithiothreitol (Sigma, D-5545), Adenosine-5′ triphosphate (InVitrogen, Cat#AS001A), native PIP3 (PI(3,4,5)P3, diC8, H^+, CELLSIGNALS, INC. Cat #907) DMSO (Sigma, 472301).
(§6) PI3Kinase Reaction Buffer is prepared by dilution the stock 1:4 with de-ionized water. DTT, PIP2 and Biotin-PIP3 were added to 1536 assay plate at a final concentration of 5 mM, […] on the day of use. Enzyme addition and compound pre-incubation are initiated by the addition of 1.25 ul of PI3K (at twice its final concentration) in the 1× reaction buffer to all wells using a BioRaptor. Plates are incubated at RT for 15 minutes. Reactions are initiated by addition of 1.25 ul of 2× substrate solution (PIP2 and ATP in 1× reaction buffer) using BioRaptor. Plates are incubated in humidified chamber at RT for one hour. Reactions are quenched by addition of 0.625 uL of stop solution to all wells using the BioRaptor. The quenched reactions are then processed to detect product formation by adding 0.625 uL of Detection Solution to all wells using the BioRaptor (Detection mix C, Detection Mix A, and Detection Mix B combined together in an 18:1:1 ratio prepared 2 hours prior to use). Following a one hour incubation in the dark, the HTRF signal is measured on the Envision plate reader set for 330 nm excitation and dual emission detection at 620 nM (Eu) and 665 nM (APC).

PI3Kalpha = PI3Kalpha (Homo sapiens (Human), UniProt P42336); assay: HTRF PI3K biochemical assay, alpha isoform (selectivity versus PI3Kalpha); conditions: relative ratio (PI3K-alpha IC50 value/PI3K-delta IC50 value); form screened: Neutral
Chain of PI3Kalpha (P42336 whole entry, canonical isoform): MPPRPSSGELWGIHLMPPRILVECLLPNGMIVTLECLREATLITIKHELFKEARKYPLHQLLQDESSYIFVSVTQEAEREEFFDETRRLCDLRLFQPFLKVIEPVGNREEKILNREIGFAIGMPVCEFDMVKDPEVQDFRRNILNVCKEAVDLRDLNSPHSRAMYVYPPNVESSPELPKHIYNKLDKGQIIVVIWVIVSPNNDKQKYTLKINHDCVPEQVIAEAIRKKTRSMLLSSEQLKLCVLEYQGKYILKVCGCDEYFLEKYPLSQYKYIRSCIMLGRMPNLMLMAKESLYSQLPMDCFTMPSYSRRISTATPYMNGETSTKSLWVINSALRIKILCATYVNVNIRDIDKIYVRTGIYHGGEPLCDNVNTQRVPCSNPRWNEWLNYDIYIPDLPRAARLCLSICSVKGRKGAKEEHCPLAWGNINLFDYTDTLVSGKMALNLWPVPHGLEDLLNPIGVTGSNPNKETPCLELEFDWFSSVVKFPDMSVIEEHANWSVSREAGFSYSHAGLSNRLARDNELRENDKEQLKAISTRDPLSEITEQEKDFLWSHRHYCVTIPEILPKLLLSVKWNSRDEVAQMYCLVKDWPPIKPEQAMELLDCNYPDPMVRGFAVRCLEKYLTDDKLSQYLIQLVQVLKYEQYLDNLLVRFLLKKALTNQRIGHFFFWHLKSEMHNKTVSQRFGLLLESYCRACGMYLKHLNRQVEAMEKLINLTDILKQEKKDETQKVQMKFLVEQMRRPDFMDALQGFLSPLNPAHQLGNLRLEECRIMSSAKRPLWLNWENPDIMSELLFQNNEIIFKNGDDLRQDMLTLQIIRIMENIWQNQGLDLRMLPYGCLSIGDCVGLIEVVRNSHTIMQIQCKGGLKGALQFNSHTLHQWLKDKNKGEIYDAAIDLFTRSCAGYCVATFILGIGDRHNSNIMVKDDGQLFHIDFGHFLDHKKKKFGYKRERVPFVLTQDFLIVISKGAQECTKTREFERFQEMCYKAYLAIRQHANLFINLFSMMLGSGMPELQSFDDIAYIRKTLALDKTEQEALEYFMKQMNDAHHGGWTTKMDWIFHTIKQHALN
Chain of PI3Kalpha (P27986 whole entry partner, canonical isoform): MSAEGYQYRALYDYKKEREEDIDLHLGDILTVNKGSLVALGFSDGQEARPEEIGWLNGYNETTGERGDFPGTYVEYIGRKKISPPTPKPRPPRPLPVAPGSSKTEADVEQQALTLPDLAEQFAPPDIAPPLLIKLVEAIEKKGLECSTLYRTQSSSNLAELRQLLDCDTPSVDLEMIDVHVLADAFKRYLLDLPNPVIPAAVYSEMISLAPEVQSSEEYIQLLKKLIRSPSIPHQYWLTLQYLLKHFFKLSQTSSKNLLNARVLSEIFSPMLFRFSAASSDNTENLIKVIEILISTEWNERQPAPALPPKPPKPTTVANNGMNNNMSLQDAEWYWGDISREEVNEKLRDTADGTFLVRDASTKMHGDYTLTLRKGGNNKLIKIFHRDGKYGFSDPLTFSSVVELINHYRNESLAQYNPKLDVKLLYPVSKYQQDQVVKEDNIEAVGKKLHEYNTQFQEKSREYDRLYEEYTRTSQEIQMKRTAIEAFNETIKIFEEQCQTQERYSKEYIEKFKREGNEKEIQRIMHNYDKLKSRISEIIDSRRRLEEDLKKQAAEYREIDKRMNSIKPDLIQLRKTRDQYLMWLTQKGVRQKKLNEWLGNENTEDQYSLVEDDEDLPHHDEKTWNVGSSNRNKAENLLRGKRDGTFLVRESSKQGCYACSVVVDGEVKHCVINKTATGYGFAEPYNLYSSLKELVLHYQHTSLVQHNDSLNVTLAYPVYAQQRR
Text: as §1, §2, §3, §4, §5
as §6, with “[…]. […]” for “(APC).”

Chain of PI3Kdelta (O00329 whole entry, canonical isoform): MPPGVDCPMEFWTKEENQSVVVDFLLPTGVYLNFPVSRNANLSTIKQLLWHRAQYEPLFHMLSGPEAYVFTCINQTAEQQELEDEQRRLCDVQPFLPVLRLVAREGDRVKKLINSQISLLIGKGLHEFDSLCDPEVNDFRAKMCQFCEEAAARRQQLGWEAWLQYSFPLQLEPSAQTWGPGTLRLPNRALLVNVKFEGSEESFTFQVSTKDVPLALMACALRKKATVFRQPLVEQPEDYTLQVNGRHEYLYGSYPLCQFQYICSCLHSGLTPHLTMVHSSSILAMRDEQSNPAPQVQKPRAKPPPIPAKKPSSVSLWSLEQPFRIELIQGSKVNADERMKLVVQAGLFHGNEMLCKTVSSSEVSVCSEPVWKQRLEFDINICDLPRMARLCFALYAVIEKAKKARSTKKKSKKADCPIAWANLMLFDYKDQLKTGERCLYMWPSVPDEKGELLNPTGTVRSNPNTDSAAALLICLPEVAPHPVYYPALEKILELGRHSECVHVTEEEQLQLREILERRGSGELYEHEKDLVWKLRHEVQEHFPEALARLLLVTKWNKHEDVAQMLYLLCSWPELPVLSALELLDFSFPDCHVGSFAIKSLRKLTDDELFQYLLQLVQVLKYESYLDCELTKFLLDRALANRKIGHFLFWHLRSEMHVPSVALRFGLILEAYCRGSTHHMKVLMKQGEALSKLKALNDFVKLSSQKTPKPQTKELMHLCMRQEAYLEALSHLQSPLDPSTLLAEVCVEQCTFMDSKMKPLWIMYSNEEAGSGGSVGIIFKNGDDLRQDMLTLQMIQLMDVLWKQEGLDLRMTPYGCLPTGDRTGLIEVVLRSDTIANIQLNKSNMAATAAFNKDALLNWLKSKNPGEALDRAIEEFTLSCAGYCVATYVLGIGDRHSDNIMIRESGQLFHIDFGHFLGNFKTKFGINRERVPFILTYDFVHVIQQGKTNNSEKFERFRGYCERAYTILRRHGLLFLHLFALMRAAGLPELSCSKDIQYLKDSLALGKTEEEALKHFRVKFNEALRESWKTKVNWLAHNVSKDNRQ
Chain of PI3Kdelta (P27986 whole entry partner, canonical isoform): as the sequence (P27986 whole entry partner, canonical isoform) above

IC50 (PI3Kdelta) | Selectivity versus PI3Kalpha (PI3Kalpha) | SMILES
32 nM | >10 | CC[C@H](Nc1ncnc2c1nc(-c1cnc(C)nc1)n2CC)C(=O)N1CCOC[C@@H]1C [Compound 2-26, 9-ethyl-N-[(1S)-1-{[(3S)-3-methylmorpholin-4-yl]carbonyl}propyl]-8-(2-methylpyrimidin-5-yl)-9H-purin-6-amine]
11 nM | >10 | CC[C@H](Nc1ncnc2c1nc(-c1cnc(C)nc1)n2CC)C(=O)N1CCOC2(CC2)C1 [Compound 2-29, 9-ethyl-8-(2-methylpyrimidin-5-yl)-N-[(1S)-1-(4-oxa-7-azaspiro[2.5]oct-7-ylcarbonyl)propyl]-9H-purin-6-amine]
9.8 nM | >10 | CC[C@H](Nc1ncnc2c1nc(-c1cnc(C)nc1)n2CC)C(=O)N1CCOC(C)(C)C1 [Compound 2-33, N-{(1S)-1-[(2,2-dimethylmorpholin-4-yl)carbonyl]propyl}-9-ethyl-8-(2-methylpyrimidin-5-yl)-9H-purin-6-amine]
12 nM | >10 | CC[C@H](Nc1ncnc2c1nc(-c1cnc(C)nc1)n2CC)C(=O)N1CCOCC1(C)C [Compound 2-34, N-{(1S)-1-[(3,3-dimethylmorpholin-4-yl)carbonyl]propyl}-9-ethyl-8-(2-methylpyrimidin-5-yl)-9H-purin-6-amine]
39 nM | >10 | CC[C@H](Nc1ncnc2c1nc(-c1cnc(C)nc1)n2CC)C(=O)N1CCOC(COC)C1 (stereo partly drawn) [Compound 2-35, 9-ethyl-N-[(1S)-1-{[2-(methoxymethyl)morpholin-4 yl]carbonyl}propyl]-8-(2-methylpyrimidin-5-yl)-9H-purin-6-amine]

Continued, compound first:

SMILES | IC50 (PI3Kdelta) | Selectivity versus PI3Kalpha (PI3Kalpha)
CC[C@H](Nc1ncnc2c1nc(-c1cnc(C)nc1)n2CC)C(=O)N1CCOCC12CCC2 [Compound 2-27, 9-ethyl-8-(2-methylpyrimidin-5-yl)-N-[(1S)-1-(8-oxa-5-azaspiro[3.5]non-5-ylcarbonyl)propyl]-9H-purin-6-amine] | 11 nM | >10
CC[C@H](Nc1ncnc2c1nc(-c1cnc(C)nc1)n2CC)C(=O)N1C[C@@H]2C[C@H]1CO2 [Compound 2-31, 9-ethyl-8-(2-methylpyrimidin-5-yl)-N-{(1S)-1-[(1S,4S)-2-oxa-5-azabicyclo[2.2.1]hept-5-ylcarbonyl]propyl}-9H-purin-6-amine] | 37 nM | >10
CC[C@H](Nc1ncnc2c1nc(-c1cnc(C)nc1)n2CC)C(=O)N1CCOCC1C(C)C (stereo partly drawn) [Compound 2-32, 9-ethyl-N-[(1S)-1-{[3-(1-methylethyl)morpholin-4-yl]carbonyl}propyl]-8-(2-methylpyrimidin-5-yl)-9H-purin-6-amine] | 83 nM | >10
CCn1c(-c2cnc(C)nc2)nc2c(N[C@@H](C)C(=O)N3C[C@@H](C)O[C@@H](C)C3)ncnc21 [Compound 2-39, N-{(1S)-2-[(cis)-2,6-dimethylmorpholin-4-yl]-1-methyl-2-oxoethyl}-9-ethyl-8-(2-methylpyrimidin-5-yl)-9H-purin-6-amine] | 12 nM | >10
CCn1c(-c2cnc(C)nc2)nc2c(N[C@H](C(=O)N3C[C@@H](C)O[C@@H](C)C3)C3CC3)ncnc21 [Compound 2-40, N-{(1S)-1-cyclopropyl-2-[(cis)-2,6-dimethylmorpholin-4-yl]-2-oxoethyl}-9-ethyl-8-(2-methylpyrimidin-5-yl)-9H-purin-6-amine] | 4.1 nM | >10
CCn1c(-c2cnc(C)nc2)nc2c(N[C@@H](CC(N)=O)C(=O)N3C[C@@H](C)O[C@@H](C)C3)ncnc21 [Compound 2-41, (3S)-4-[(cis)-2,6-dimethylmorpholin-4-yl]-3-{[9-ethyl-8-(2-methylpyrimidin-5-yl)-9H-purin-6-yl]amino}-4-oxobutanamide] | 110 nM | >10
